Assay results as given in PubChem BioAssay (NCI).
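Protocol summary: plate cells (96-well), add compound at 5 concentrations, incubate 48 h, interpolate endpoints linearly. The concentration for full growth arrest is given as TGI.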

Legend:
Experiment in all cases: inhibition of tumour cell growth, NCI panel, 48 h
786-0 renal = system: 786-0 renal
A549 NSCLC = system: A549 NSCLC
ACHN renal = system: ACHN renal
BT-549 breast = system: BT-549 breast
CAKI-1 renal = system: CAKI-1 renal
CCRF-CEM leukemia = system: CCRF-CEM leukemia
COLO 205 colon = system: COLO 205 colon
DU-145 prostate = system: DU-145 prostate
EKVX NSCLC = system: EKVX NSCLC
HCC-2998 colon = system: HCC-2998 colon
HCT-116 colon = system: HCT-116 colon
HCT-15 colon = system: HCT-15 colon
HL-60(TB) leukemia = system: HL-60(TB) leukemia
HOP-62 NSCLC = system: HOP-62 NSCLC
HS 578T breast = system: HS 578T breast
HT29 colon = system: HT29 colon
IGROV1 ovarian = system: IGROV1 ovarian
K-562 leukemia = system: K-562 leukemia
KM12 colon = system: KM12 colon
LOX IMVI melanoma = system: LOX IMVI melanoma
M14 melanoma = system: M14 melanoma
MALME-3M melanoma = system: MALME-3M melanoma
MCF7 breast = system: MCF7 breast
MDA-MB-231 breast = system: MDA-MB-231 breast
MDA-MB-435 = system: MDA-MB-435
MDA-N = system: MDA-N
MOLT-4 leukemia = system: MOLT-4 leukemia
NCI-H226 lung = system: NCI-H226 lung
NCI-H23 lung = system: NCI-H23 lung
NCI-H460 lung = system: NCI-H460 lung
NCI-H522 lung = system: NCI-H522 lung
NCI/ADR-RES ovarian = system: NCI/ADR-RES ovarian
OVCAR-3 ovarian = system: OVCAR-3 ovarian
OVCAR-4 ovarian = system: OVCAR-4 ovarian
OVCAR-5 ovarian = system: OVCAR-5 ovarian
OVCAR-8 ovarian = system: OVCAR-8 ovarian
RPMI-8226 leukemia = system: RPMI-8226 leukemia
SF-268 CNS = system: SF-268 CNS
SF-295 CNS = system: SF-295 CNS
SF-539 CNS = system: SF-539 CNS
SK-MEL-2 melanoma = system: SK-MEL-2 melanoma
SK-MEL-28 melanoma = system: SK-MEL-28 melanoma
SK-MEL-5 melanoma = system: SK-MEL-5 melanoma
SN12C renal = system: SN12C renal
SNB-19 CNS = system: SNB-19 CNS
SR leukemia = system: SR leukemia
SW-620 colon = system: SW-620 colon
T-47D breast = system: T-47D breast
TK-10 renal = system: TK-10 renal
U251 CNS = system: U251 CNS
UACC-257 melanoma = system: UACC-257 melanoma
UACC-62 melanoma = system: UACC-62 melanoma
UO-31 renal = system: UO-31 renal
A498 renal = system: A498 renal
HOP-92 NSCLC = system: HOP-92 NSCLC
RXF 393 renal = system: RXF 393 renal

Molecule `COc1ccc(NS(=O)c2ccc(OC)cc2)cc1` (stereo not drawn) has a TGI (786-0 renal) of over 100 µM, a TGI (A549 NSCLC) of over 100 µM and a TGI (ACHN renal) of over 100 µM. For the same molecule, the TGI (BT-549 breast) was over 100 µM, the TGI (CAKI-1 renal) was over 100 µM and the TGI (CCRF-CEM leukemia) was over 100 µM. For the same molecule, the TGI (COLO 205 colon) was over 100 µM, the TGI (DU-145 prostate) was over 100 µM and the TGI (EKVX NSCLC) was over 100 µM. It also gave a TGI (HCC-2998 colon) of over 100 µM, a TGI (HCT-116 colon) of over 100 µM and a TGI (HCT-15 colon) of over 100 µM. It also gave a TGI (HL-60(TB) leukemia) of over 100 µM, a TGI (HOP-62 NSCLC) of over 100 µM and a TGI (HS 578T breast) of over 100 µM. The TGI (HT29 colon) was over 100 µM, the TGI (IGROV1 ovarian) was 99.4 µM and the TGI (K-562 leukemia) was over 100 µM. The TGI (KM12 colon) was 24.1 µM, the TGI (LOX IMVI melanoma) was over 100 µM and the TGI (M14 melanoma) was over 100 µM. It also gave a TGI (MALME-3M melanoma) of 90.9 µM, a TGI (MCF7 breast) of over 100 µM and a TGI (MDA-MB-231 breast) of over 100 µM. For the same molecule, the TGI (MDA-MB-435) was over 100 µM, the TGI (MDA-N) was over 100 µM and the TGI (MOLT-4 leukemia) was over 100 µM. It also gave a TGI (NCI-H226 lung) of over 100 µM, a TGI (NCI-H23 lung) of over 100 µM and a TGI (NCI-H460 lung) of over 100 µM. The TGI (NCI-H522 lung) was over 100 µM, the TGI (NCI/ADR-RES ovarian) was over 100 µM and the TGI (OVCAR-3 ovarian) was over 100 µM. It also gave a TGI (OVCAR-4 ovarian) of over 100 µM, a TGI (OVCAR-5 ovarian) of over 100 µM and a TGI (OVCAR-8 ovarian) of over 100 µM. For the same molecule, the TGI (RPMI-8226 leukemia) was over 100 µM, the TGI (SF-268 CNS) was 74.4 µM and the TGI (SF-295 CNS) was over 100 µM. It also gave a TGI (SF-539 CNS) of 32.5 µM, a TGI (SK-MEL-2 melanoma) of 83.6 µM and a TGI (SK-MEL-28 melanoma) of over 100 µM. For the same molecule, the TGI (SK-MEL-5 melanoma) was over 100 µM, the TGI (SN12C renal) was over 100 µM and the TGI (SNB-19 CNS) was over 100 µM. The TGI (SR leukemia) was over 100 µM, the TGI (SW-620 colon) was over 100 µM and the TGI (T-47D breast) was 82.8 µM. The TGI (TK-10 renal) was over 100 µM, the TGI (U251 CNS) was 34.2 µM and the TGI (UACC-257 melanoma) was over 100 µM. The TGI (UACC-62 melanoma) was 66.2 µM and the TGI (UO-31 renal) was 48.5 µM.
`CC1OC(OC2C(O[C@@H]3C[C@@H]4CC[C@@H]5[C@H](CC[C@]6(C)C7C(C[C@@H]56)O[C@]5(CC[C@@H](C)CO5)[C@H]7C)[C@@]4(C)C[C@H]3O)OC(CO)C(O)C2O)C(O)C(O)C1O` (stereo partly drawn) showed a TGI (A498 renal) of 5.29 µM, a TGI (BT-549 breast) of 4.15 µM and a TGI (CAKI-1 renal) of 3.22 µM. For the same molecule, the TGI (CCRF-CEM leukemia) was 3.52 µM, the TGI (COLO 205 colon) was 3.41 µM and the TGI (DU-145 prostate) was 3.13 µM. The TGI (HCC-2998 colon) was 3.21 µM, the TGI (HCT-15 colon) was 3.27 µM and the TGI (HL-60(TB) leukemia) was 4.48 µM. The TGI (HOP-92 NSCLC) was 6.25 µM, the TGI (HS 578T breast) was 5.26 µM and the TGI (K-562 leukemia) was 5.94 µM. For the same molecule, the TGI (LOX IMVI melanoma) was 3.29 µM, the TGI (MALME-3M melanoma) was 3.15 µM and the TGI (MDA-MB-231 breast) was 3.19 µM. The TGI (MDA-MB-435) was 2.86 µM, the TGI (MDA-N) was 13.6 µM and the TGI (NCI-H226 lung) was 6.08 µM. The TGI (NCI-H23 lung) was 3.14 µM, the TGI (OVCAR-3 ovarian) was 3.02 µM and the TGI (OVCAR-4 ovarian) was 3.28 µM. The TGI (OVCAR-5 ovarian) was 2.85 µM, the TGI (RPMI-8226 leukemia) was 4.9 µM and the TGI (RXF 393 renal) was 3.65 µM. It also gave a TGI (SF-268 CNS) of 3.5 µM, a TGI (SF-295 CNS) of 3.2 µM and a TGI (SF-539 CNS) of 3.02 µM. The TGI (SK-MEL-28 melanoma) was 3.43 µM, the TGI (SK-MEL-5 melanoma) was 4.22 µM and the TGI (SNB-19 CNS) was 33 µM. The TGI (SR leukemia) was 5.24 µM, the TGI (T-47D breast) was 3.7 µM and the TGI (TK-10 renal) was 3.06 µM. It also gave a TGI (UACC-257 melanoma) of 3.35 µM and a TGI (UACC-62 melanoma) of 3.16 µM.
